# Experimental data from publication PMC9316855 (Molecules, 2022).
# Where two headings read alike, the source gives them in different places.
# What was measured:
# [1] = 24 h; cited from earlier work
# [2] = 4 h; cited from earlier work
structure (smiles),measurement,setting,value
"CC(C)C[C@H](NC(=O)[C@H](CC(=O)O)NC(=O)CNC(=O)[C@H](CCCNC(=N)N)NC(=O)[C@H](CC(C)C)NC(=O)[C@H](CC(N)=O)NC(=O)[C@@H]1CCCN1C(=O)[C@@H](NC(=O)[C@H](C)NC(=O)[C@@H](N)CC(N)=O)C(C)C)C(=O)N[C@@H](CCC(N)=O)C(=O)N[C@H](C(=O)N[C@@H](CC(C)C)C(=O)N[C@@H](C)C(=O)N[C@@H](CCC(N)=O)C(=O)N[C@@H](CCCCN)C(=O)N[C@H](C(=O)N[C@@H](C)C(=O)N[C@@H](CCCNC(=N)N)C(=O)N[C@H](C(=O)O)[C@@H](C)O)C(C)C)C(C)C [Compound 13, H2N-^1NAVPNLRGDLQVLAQKVAR^20T-OH]",peptide remaining intact in rat serum,24 h,almost completely degraded
same,peptide remaining intact in rat serum,48 h,undetected
same,peptide remaining in human plasma,[1],> 75%
same,peptide remaining intact in mouse serum,[2],50%
